The supplement of paper PMC11003180

Legend:
Assay in all cases: drug sensitivity score (DSS) from 5-dose viability curve (DSS (area-based score, 0 = no response)); higher = more sensitive (stronger viability inhibition); extreme values may be limits of the assay
[1] = system: MDCK wild-type + doxycycline; conditions: doxycycline: 10 ng/mL; 72 h
Procedure, shortened: (§1)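 After 72 h at 37 °C on 384-well plates pre-spotted with 528 oncology drugs at five doses (1-10,000 nM), parental and doxycycline-inducible MDCK cells were assessed; both lines had been given 10 ng/mL doxycycline in the medium before seeding at 2000 cells/well. Viability was taken from CellTiter-Glo luminescence scaled per plate to vehicle and positive controls, and drug sensitivity scores were derived from dose-response fits in the Breeze pipeline.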

[2] = system: MDCK p60AmotL2-inducible + doxycycline (p60AmotL2 expressing); conditions: doxycycline: 10 ng/mL; 72 h
Procedure, shortened: as §1

[3] = system: MDCK wild-type - doxycycline; conditions: doxycycline: none; 72 h
Procedure, shortened: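 Parental MDCK cells without doxycycline were dispensed at 2000 cells/well onto pre-spotted 384-well plates. The plates held an oncology library of 528 drugs at five doses (1-10,000 nM) and were incubated 72 h at 37 °C. Viability was read as CellTiter-Glo luminescence and scaled per plate between vehicle and positive controls. Drug sensitivity scores came from dose-response curve fits in the Breeze pipeline.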

Row | SMILES | drug sensitivity score [1] | drug sensitivity score [2] | drug sensitivity score [3]
1 | CCC1=C[C@@H]2CN(C1)Cc1c([nH]c3ccccc13)[C@@](C(=O)OC)(c1cc3c(cc1OC)N(C)[C@H]1[C@@](O)(C(=O)OC)[C@H](OC(C)=O)[C@]4(CC)C=CCN5CC[C@]31[C@@H]54)C2 [Vinorelbine] | 30.2 | 34.2 | 29.8
2 | O=C(Nc1cc(Oc2cc(F)c(NC(=O)C3(C(=O)Nc4ccc(F)cc4)CC3)cc2F)ccn1)C1CC1 [Altiratinib] | 0 | 8 | 0
3 | COc1cc(C)c(/C=C/C(C)=C/C=C/C(C)=C/C(=O)O)c(C)c1C [Acitretin] | 0 | 0 | 3.6
4 | Cn1ncc(Cl)c1-c1cc(C(=O)N[C@H](CN)Cc2cccc(F)c2)sc1Cl [Afuresertib] | 0 | 0 | 0
5 | CCCCNc1ncc(C(=O)NCc2ccc(-n3ccnc3)cc2)c(NC2CCC(O)CC2)n1 (configuration not stated) [UNC2881] | 0 | 1.9 | 0
6 | C[C@H]1O[C@@H](O[C@H]2[C@@H](O)C[C@H](O[C@H]3[C@@H](O)C[C@H](O[C@H]4CC[C@@]5(C)[C@H](CC[C@@H]6[C@@H]5C[C@@H](O)[C@]5(C)[C@@H](C7=CC(=O)OC7)CC[C@]65O)C4)O[C@@H]3C)O[C@@H]2C)C[C@H](O)[C@@H]1O [Digoxin] | 11.2 | 5.3 | 6
7 | C[C@H](Nc1ncnc2nc[nH]c12)c1cc2cccc(Cl)c2c(=O)n1-c1ccccc1 [Duvelisib] | 0 | 0 | 0
8 | CCc1cc2c(cc1N1CCC(N3CCOCC3)CC1)C(C)(C)c1[nH]c3cc(C#N)ccc3c1C2=O [Alectinib] | 0 | 0 | 0
9 | Cc1cc(Nc2cc(CN3CCOCC3)c3nc(C)c(Cc4ccc(Cl)cc4F)n3n2)n[nH]1 [Gandotinib] | 5.5 | 8.2 | 6.3
10 | O=C(/C=C/c1cccc(S(=O)(=O)Nc2ccccc2)c1)NO [Belinostat] | 15.8 | 19 | 14
11 | O=C1c2c(O)ccc(O)c2C(=O)c2c(NCCNCCO)ccc(NCCNCCO)c21 [Mitoxantrone] | 8.9 | 15.5 | 7.1
12 | O=C(O)CCCCC(CCSCc1ccccc1)SCc1ccccc1 (configuration not stated) [CPI-613] | 0 | 0 | 0
13 | C[C@H]1CNCCCN1S(=O)(=O)c1cccc2cncc(F)c12 [Ripasudil] | 0 | 0 | 0
14 | CC1(C)OCCn2c1nc1c(N3CCOCC3)nc(-c3cnc(N)nc3)nc12 [GDC-0084] | 10.2 | 14.9 | 7
15 | Cn1ncc(Cl)c1-c1cc(C(=O)N[C@H](CN)Cc2ccc(F)c(F)c2)oc1Cl [Uprosertib] | 0 | 0 | 0
16 | COCCNCc1ccc(-c2cc3nccc(Oc4ccc(NC(=S)NC(=O)Cc5ccc(F)cc5)cc4F)c3s2)nc1 [Glesatinib] | 0 | 0.4 | 0
17 | C[C@@H](Nc1cc(F)cc(F)c1)c1cc(C(=O)N(C)C)cc2c(=O)cc(N3CCOCC3)oc12 [AZD-8186] | 0 | 1.4 | 0

Row | SMILES | drug sensitivity score [1] | drug sensitivity score [2] | drug sensitivity score [3]
18 | CNc1nc(Nc2cn(C(C)(C)C#N)nc2C)ncc1C(F)(F)F [GNE-0877] | 0 | 0 | 0
19 | CC(C)C[C@H](NC(=O)[C@@H](COC(C)(C)C)NC(=O)[C@H](Cc1ccc(O)cc1)NC(=O)[C@H](CO)NC(=O)[C@H](Cc1c[nH]c2ccccc12)NC(=O)[C@H](Cc1cnc[nH]1)NC(=O)[C@@H]1CCC(=O)N1)C(=O)N[C@@H](CCCNC(=N)N)C(=O)N1CCC[C@H]1C(=O)NNC(N)=O [Goserelin] | 0 | 0 | 0
20 | CC(C)N(CCCNC(=O)Nc1ccc(C(C)(C)C)cc1)C[C@H]1O[C@@H](n2cc(Br)c3c(N)ncnc32)[C@H](O)[C@@H]1O [SGC0946] | 0 | 0 | 0
21 | CCN1CCN(Cc2ccc(Nc3ncc(F)c(-c4cc(F)c5nc(C)n(C(C)C)c5c4)n3)nc2)CC1 [Abemaciclib] | 5.6 | 7.3 | 3.3
22 | COc1cc(Nc2ncc(F)c(Nc3ccc4c(n3)N(COP(=O)(O)O)C(=O)C(C)(C)O4)n2)cc(OC)c1OC [Fostamatinib] | 1.8 | 4.6 | 0.7
23 | CNS(=O)(=O)Nc1nccc(Cc2c(C)c3ccc(Oc4ncccn4)cc3oc2=O)c1F | 0.5 | 2.3 | 0
24 | O=c1[nH]c(=O)n([C@H]2C[C@H](O)[C@@H](CO)O2)cc1F [Floxuridine] | 21.7 | 22.7 | 18.2
25 | O[C@H](C[C@H]1c2c(F)cccc2-c2cncn21)[C@H]1CC[C@H](O)CC1 [GDC-0919] | 0 | 0 | 0
26 | COC(=O)N[C@@H](C)CNc1nccc(-c2cn(C(C)C)nc2-c2cc(Cl)cc(NS(C)(=O)=O)c2F)n1 [Encorafenib] | 0 | 0 | 0.2
27 | CC1(C)CCC(c2ccc(Cl)cc2)=C(CN2CCN(c3ccc(C(=O)NS(=O)(=O)c4ccc(N[C@H](CCN5CCOCC5)CSc5ccccc5)c(S(=O)(=O)C(F)(F)F)c4)cc3)CC2)C1 [Navitoclax] | 0.9 | 0 | 0.8
28 | CC(O)c1cc(C(=O)N[C@@H](C)Cn2ccc(-c3ccc(C#N)c(Cl)c3)n2)n[nH]1 (some centres not stated) [ODM-201] | 0 | 0 | 0
29 | FC(F)(F)c1ccc(CNc2ccc(Cc3c[nH]c4ncc(Cl)cc34)cn2)cn1 [Pexidartinib] | 0 | 0.1 | 0
30 | C=CC(=O)N1CCC(Oc2cc3c(Nc4ccc(Cl)c(Cl)c4F)ncnc3cc2OC)CC1 [Poziotinib] | 14.3 | 27.9 | 9.2
31 | O=C1CCC(N2C(=O)c3ccccc3C2=O)C(=O)N1 (configuration not stated) [Thalidomide] | 0 | 0 | 0
32 | CCNc1nc(Nc2cc(F)c(C(=O)N3CCOCC3)cc2OC)ncc1C(F)(F)F [GNE-7915] | 0 | 0 | 0
33 | CCNC(=O)C[C@@H]1N=C(c2ccc(Cl)cc2)c2cc(OC)ccc2-n2c(C)nnc21 [Molibresib] | 2.9 | 9.5 | 0.9
34 | COc1cc2c(cc1OC(C)C)[C@H](c1ccc(Cl)cc1)N(c1ccc(N(C)C[C@H]3CC[C@H](N4CCN(C)C(=O)C4)CC3)cc1)C(=O)C2 [NVP-CGM097] | 5.3 | 7.6 | 5.4
